Test results from patent publication US9271987B2, “Methods and compositions for treating Alzheimer's disease” (Cold Spring Harbor Laboratory, priority 2011, dated 2016).
Entries after “also recorded” stand apart in the source; their conditions may differ.

Columns and labels:
[1] = system: Aβ42-expressing flies (elav-Gal4/Y; UAS-Aβ42/+); experiment: Pavlovian olfactory associative immediate memory in Aβ42-expressing flies after drug feeding
Method: Flies were raised and maintained at room temperature (22-24° C.).

[2] = system: Tg(APPswe.PSEN1dE9) double transgenic mice; experiment: Morris water maze in AD-model double transgenic mice; assay type: in vivo, mouse; conditions: for Rescue of memory loss in Morris water maze: 8-month-old mice, lavage once daily from 9 days before training until end of experiments (18 days)
human EGFR = target: T1, human EGFR (Homo sapiens, UniProt P00533); experiment: p-EGFR level in COS-7 cells transfected with human EGFR wt (Western blot); assay type: cell-based; conditions: 15 min; for Level of p-EGFR or activated EGFR after Aβ42 application: 25 μg/ml Aβ42 preparation
T1 construct: expressed in transfected cells; host or cells: COS-7 (monkey kidney), Lipofectamine 2000, plasmid from Dr. Parsons
Method: COS-7 cells were transfected with human EGFR^wt plasmid for 48 h, then incubated with 25 μg/ml oligomeric Aβ42 preparation for 15 min. Human EGF (0.5 μg/ml) for positive control. N=3.
COS-7 cells were cultured in normal Dulbecco's Modified Eagle Medium (D-MEM) containing 10% fetal bovine serum (Invitrogen) at 37° C. in 5% CO2. […] Transfection as performed following the Lipofectamine 2000 manuals (Invitrogen). After 48 h, cells were washed with fresh medium once and incubated with 10 or 25 μg/ml Aβ42 oligomers for 15 min at 37° C. in 5% CO2. 0.5 μg/ml human EGF (Sigma) was used as a positive control. Cells were then washed with PBS for 3 times and collected.
Whole fly head or cells lysates were prepared using a RIPA buffer containing 0.3% SDS, 50 mM Tris-HCl, pH 7.4, 0.5% NP-40, 1% sodium deoxycholate, 150 mM NaCl, 5 mM EDTA, 1 tablet per 50 ml complete protease inhibitor cocktail (Roche Diagnostics). Lysates were diluted in an SDS sample buffer and separated on 10-20% Tris-Tricine gels (Invitrogen), and transferred to nitrocellulose membranes (Invitrogen). The membranes were boiled in PBS for 3 min, blocked with 5% non-fat dry milk and blotted with a first antibody. First antibodies used herein included mouse anti-Aβ42 (6E10, Covance Research Products), mouse anti-dEGFR (Abcam), rabbit anti-hEGFR (Cell Signaling), mouse anti-hEGFR-p (Cell Signaling) and rabbit anti-Actin (Sigma). Data were analyzed with the ImageJ software (National Institutes of Health).

[3] = EGFR inhibitor 0.01, 0.1, 1, 10 μg/ml, fed 4 hours each day for 7 days, 10-day-old Aβ42-expressing males

Compound	Aβ42-induced memory loss (immediate memory) [1, 3]	Rescue of memory loss in Morris water maze [2]	Level of p-EGFR or activated EGFR after Aβ42 application (human EGFR)	further results
C#Cc1cccc(Nc2ncnc3cc(OCCOC)c(OCCOC)cc23)c1 [Er, N-(3-ethynylphenyl)-6,7-bis(2-methoxyethoxy)quinazolin-4-amine]	prevented the memory loss			
COc1cc2ncnc(Nc3ccc(F)c(Cl)c3)c2cc1OCCCN1CCOCC1 [Ge, N-(3-chloro-4-fluoro-phenyl)-7-methoxy-6-(3-morpholin-4-ylpropoxy)quinazolin-4-amine]	prevented the memory loss	sufficient to rescue the memory loss; also recorded: rescuing effects were observed		Effect of two-month drug feeding on memory loss ([2]; drug feeding from 6- to 8-month-old): produced a positive effect
CC12CC3CC(C)(C1)CC(N)(C3)C2 [memantine]		unable to improve the memory-loss phenotype		Aβ42-induced memory loss (immediate memory) ([1]; memantine 20 μg/ml, fed 4 hours each day for 7 consecutive days, memory at day 10 post-eclosion, male flies): capable of preventing the memory loss; Rescue of memory loss in Morris water maze ([2]; listed as Mem): No improvement in memory; Rescue of memory loss in Morris water maze ([2]; listed as momentine): had no effect
Aβ42 from oligomeric preparation: Synthetic and recombinant wild type Aβ42 (AnaSpec) incubated at 4° C. for 24 h to form oligomers			significantly elevated	Expression levels of EGFRs after Aβ42 application (human EGFR; 25 μg/ml Aβ42 from oligomeric preparation): not affected
monomeric Aβ42 preparation: Aβ42 peptide preparation abundant in monomers			opposite effect	
